From PubChem BioAssay AID330 (DTP/NCI, 2004)
Values joined by “and” are separate entries in the source; they are usually repeats but may differ in a detail not shown here. Equal entries are not always repeated. Inconclusive results and toxic doses are left out. How the source made its calls: active means survival T/C of 150% or more; inactive means T/C below 125% in these data.

Test system: P388 leukemia ip, CD2F1 mice, survival T/C
Assay: NCI In Vivo Anticancer Drug Screen. Data for tumor model P388 Leukemia (intraperitoneal) in CD2F1 (CDF1) mice
Conditions: endpoint: median survival time, higher = longer survival
Summary of the method: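 Mice carrying the transplanted tumor received test compound or vehicle. Survival was recorded in each group, and the value is the treated-group measurement divided by that of the vehicle-treated control group.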

[1] = dose: 25.0 mg/kg/injection, schedule: Q01DX009 (ip), vehicle: saline with Tween-80
[2] = dose: 50.0 mg/kg/injection, schedule: Q01DX005 (ip), vehicle: saline with Tween-80
[3] = dose: 50.0 mg/kg/injection, schedule: Q01DX009 (ip), vehicle: saline with Tween-80
[4] = dose: 100.0 mg/kg/injection, schedule: Q01DX005 (ip), vehicle: saline with Tween-80
[5] = dose: 100.0 mg/kg/injection, schedule: Q01DX009 (ip), vehicle: saline with Tween-80
[6] = dose: 200.0 mg/kg/injection, schedule: Q01DX005 (ip), vehicle: saline with Tween-80
[7] = dose: 200.0 mg/kg/injection, schedule: Q01DX009 (ip), vehicle: saline with Tween-80

Measured: T/C

CC(=O)OC1CC(C)(C2OC(=O)CC2CO)C2=CC(=O)OC3CC4C(C)(O)C=CC(=O)C4(C)C1C23C (stereo not drawn)
inactive: dose: 12.5 mg/kg/injection, schedule: Q01DX001 (ip), vehicle: Klucel (hydroxypropylcellulose) (HPC) 100 % of control | dose: 25.0 mg/kg/injection, schedule: Q01DX001 (ip), vehicle: Klucel (hydroxypropylcellulose) (HPC) 100 % of control | dose: 50.0 mg/kg/injection, schedule: Q01DX001 (ip), vehicle: Klucel (hydroxypropylcellulose) (HPC) 102 % of control | dose: 100.0 mg/kg/injection, schedule: Q01DX001 (ip), vehicle: Klucel (hydroxypropylcellulose) (HPC) 105 % of control

CCOc1cc2c(cc1OC)c[n+](C)c1c3cc(OC)c(OC)cc3ccc21
inactive: dose: 10.0 mg/kg/injection, schedule: Q01DX009 (ip), vehicle: water 122 % of control

O=c1[nH]c(=O)n2ncnc2[nH]1
inactive: [1] 91 % of control | [2] 95 % of control | [3] 95 % of control | [4] 95 % of control | [5] 99 % of control | [6] 105 % of control | [7] 91 % of control

CCCCCCCC(=O)C(=O)c1ccc(O)cc1O
inactive: dose: 50.0 mg/kg/injection, schedule: Q01DX009 (ip), vehicle: Klucel (hydroxypropylcellulose) (HPC) 109 % of control | dose: 100.0 mg/kg/injection, schedule: Q01DX009 (ip), vehicle: Klucel (hydroxypropylcellulose) (HPC) 112 % of control | dose: 200.0 mg/kg/injection, schedule: Q01DX009 (ip), vehicle: Klucel (hydroxypropylcellulose) (HPC) 113 % of control

NC(N)=NC(=O)c1ccccc1
inactive: dose: 50.0 mg/kg/injection, schedule: Q01DX005 (ip), vehicle: saline 100 % of control | dose: 100.0 mg/kg/injection, schedule: Q01DX005 (ip), vehicle: saline 100 % of control | dose: 200.0 mg/kg/injection, schedule: Q01DX005 (ip), vehicle: saline 100 % of control

CCOC(=O)/C=C/C(=O)NN
inactive: dose: 12.5 mg/kg/injection, schedule: Q01DX009 (ip), vehicle: water 89 % of control | dose: 25.0 mg/kg/injection, schedule: Q01DX009 (ip), vehicle: water 100 % of control | dose: 50.0 mg/kg/injection, schedule: Q01DX009 (ip), vehicle: water 99 % of control and 102 % of control and 93 % of control | dose: 100.0 mg/kg/injection, schedule: Q01DX009 (ip), vehicle: water 107 % of control and 109 % of control and 97 % of control | dose: 200.0 mg/kg/injection, schedule: Q01DX009 (ip), vehicle: water 104 % of control and 109 % of control

CCC(=O)OC1CCC2C3CCC(=O)OC3C(C)(CCC(=O)O)CC12C (stereo not drawn)
inactive: [2] 93 % of control | [4] 99 % of control | [6] 90 % of control

O=C1CCCCc2ccc(O)cc21
inactive: dose: 100.0 mg/kg/injection, schedule: Q01DX009 (ip), vehicle: gum acacia 104 % of control | dose: 200.0 mg/kg/injection, schedule: Q01DX009 (ip), vehicle: gum acacia 102 % of control | dose: 400.0 mg/kg/injection, schedule: Q01DX009 (ip), vehicle: gum acacia 110 % of control

OC(/C=C/CC(O)(C(F)(F)F)C(F)(F)F)(C(F)(F)F)C(F)(F)F
inactive: dose: 50.0 mg/kg/injection, schedule: Q01DX009 (ip), vehicle: saline 100 % of control | dose: 100.0 mg/kg/injection, schedule: Q01DX009 (ip), vehicle: saline 98 % of control

O=C(NCCCl)OCC(Cl)(Cl)Cl
inactive: [3] 91 % of control | [5] 100 % of control | [7] 98 % of control

O=C1Nc2c(cccc2-c2ccccc2)C(=O)C1(O)c1ccccc1 (stereo not drawn)
inactive: dose: 60.0 mg/kg/injection, schedule: Q01DX005 (ip), vehicle: Klucel (hydroxypropylcellulose) (HPC) 97 % of control | dose: 120.0 mg/kg/injection, schedule: Q01DX005 (ip), vehicle: Klucel (hydroxypropylcellulose) (HPC) 94 % of control | dose: 240.0 mg/kg/injection, schedule: Q01DX005 (ip), vehicle: Klucel (hydroxypropylcellulose) (HPC) 90 % of control

ClC1=CN(C2=NCCC2)CC1
inactive: dose: 6.25 mg/kg/injection, schedule: Q01DX009 (ip), vehicle: saline with Tween-80 101 % of control | dose: 12.5 mg/kg/injection, schedule: Q01DX009 (ip), vehicle: saline with Tween-80 103 % of control | [1] 97 % of control

CSC(=S)n1nc(-c2ccccc2)c(N=Nc2cccc(C)c2C)c1C
inactive: dose: 100.0 mg/kg/injection, schedule: Q04DX002 (ip), vehicle: saline with Tween-80 88 % of control | dose: 200.0 mg/kg/injection, schedule: Q04DX002 (ip), vehicle: saline with Tween-80 90 % of control | dose: 400.0 mg/kg/injection, schedule: Q04DX002 (ip), vehicle: saline with Tween-80 112 % of control
